Consider 16 compounds from patent publication EP4692088A1, “COMPOUND ACTING AS WRN HELICASE INHIBITOR” (SHANGHAI JEYOU PHARMACEUTICAL CO., LTD., priority 2023, dated 2024).

Where two headings read alike, the source gives them in different places.

In test [1] the target is T1, WRN enzyme (Homo sapiens, UniProt Q14191).
T1 construct: host or cells: eukaryotic cells (not further specified)
The experiment in a line: biochemical. Here is the method: The WRN enzyme used in the experiment has a His-TEV tag at the N-terminus and is expressed in eukaryotic cells with a purity of 90%. The assay kit (ADP-Glo™ Kinase Assay) was purchased from Promega (Cat. No. V9101), aliquoted, and then stored in the refrigerator at -40°C. This kit could quantitatively detect the amount of ADP generated in the reaction. WRN hydrolyzed ATP to produce ADP. The ADP-Glo reagent was added to deplete excess ATP in the reaction system, followed by the addition of Kinase Detection Reagent to convert the ADP produced by the reaction into ATP and produce chemiluminescence. The enzyme activity of WRN can be reflected by detecting the chemiluminescence signal using a microplate reader.
Single-stranded DNA was annealed to form double-stranded DNA. 5× Annealing Buffer: 50 mM Tris pH 8.0, 100 mM NaCl. Annealing program: 95°C, 5 min.
2× WRN enzyme (1 nM) and 2× substrate (1 nM double-stranded DNA, 100 µM ATP) were prepared using a buffer (20 mM Bicine (pH 7.5), 10 mM KCl, 10 mM MgCl2, 0.005% BSG, 0.002% Tween 20, 1 mM TCEP). The test compound was dissolved in DMSO to 10 mM and was gradient-diluted using a 96-well V-bottom plate. First, 25 µL of 2× WRN enzyme and 0.5 µL of compound were added to a 96-well plate and incubated at room temperature for 30 min. Then, 25 µL of 2× substrate was added, and the reaction was carried out at room temperature for 60 min. 5 µL was taken from the reaction plate and transferred to a 384-well plate for detection. 5 µL of ADP-Glo reagent was added and incubated at room temperature for 60 min, followed by the addition of 10 µL of Kinase Detection Reagent and incubation at room temperature for 40 min. The chemiluminescence signal was detected using a microplate reader.

Test [2] concerns HCT116 cells. The experiment in a line: Cell proliferation assay (CellTiter-Glo), HCT116. In kind it is cell-based. The conditions noted are these: Homo sapiens, 120 h, HCT-116, 5 days incubation. Here is the method:
(§1) SW48 cells were plated at a density of 1,500 cells/well, and LoVo, HCT116, and SW620 cells were plated at a density of 800 cells/well in a 96-well cell culture plate, and cultured in a 37°C incubator overnight. The test compounds, which were gradient-diluted with DMSO, were added, and after incubation for 5 days, cell viability was detected using a CellTiter-Glo kit. The CellTiter-Glo reagent was equilibrated to room temperature, and an appropriate amount was added to the cell plate, followed by shaking at room temperature for 12 min. The luminescence signal was detected using a microplate reader.
(§2) The luminescence signal values of the DMSO-treated wells and cell-free wells were used as negative and positive controls, respectively, to calculate the inhibition rate of compound on cell proliferation. The concentration-inhibition curve was fitted using the "log(inhibitor) vs. normalized response -- Variable slope" equation in GraphPad Prism 8 software to obtain the IC50. [formula]
On the technique in general: In ATP-based viability assays light output follows the ATP content of the culture.

The subject of test [3] is SW620 cells. In words: Cell proliferation assay (CellTiter-Glo), SW620. It is filed as cell-based. Particulars: Homo sapiens, 120 h, SW-620 (MSS), 5 days incubation. Here is the method: as §1, §2
Test [4] has as its system SW48 cells. In words: Cell proliferation assay (CellTiter-Glo), SW48. In kind it is cell-based. The conditions noted are these: Homo sapiens, SW48, 120 h, SW-48, 5 days incubation. Here is the method:
as §1, §2

Test [5] relates to LoVo. In words: Cell proliferation assay (CellTiter-Glo), LoVo. It is filed as cell-based. Particulars: Homo sapiens, 120 h, 5 days incubation. Here is the method:
as §1, §2

Where [6] appears, read: read-out: WRN helicase activity (IC50 nM).

T1 sequence (Q14191 whole entry): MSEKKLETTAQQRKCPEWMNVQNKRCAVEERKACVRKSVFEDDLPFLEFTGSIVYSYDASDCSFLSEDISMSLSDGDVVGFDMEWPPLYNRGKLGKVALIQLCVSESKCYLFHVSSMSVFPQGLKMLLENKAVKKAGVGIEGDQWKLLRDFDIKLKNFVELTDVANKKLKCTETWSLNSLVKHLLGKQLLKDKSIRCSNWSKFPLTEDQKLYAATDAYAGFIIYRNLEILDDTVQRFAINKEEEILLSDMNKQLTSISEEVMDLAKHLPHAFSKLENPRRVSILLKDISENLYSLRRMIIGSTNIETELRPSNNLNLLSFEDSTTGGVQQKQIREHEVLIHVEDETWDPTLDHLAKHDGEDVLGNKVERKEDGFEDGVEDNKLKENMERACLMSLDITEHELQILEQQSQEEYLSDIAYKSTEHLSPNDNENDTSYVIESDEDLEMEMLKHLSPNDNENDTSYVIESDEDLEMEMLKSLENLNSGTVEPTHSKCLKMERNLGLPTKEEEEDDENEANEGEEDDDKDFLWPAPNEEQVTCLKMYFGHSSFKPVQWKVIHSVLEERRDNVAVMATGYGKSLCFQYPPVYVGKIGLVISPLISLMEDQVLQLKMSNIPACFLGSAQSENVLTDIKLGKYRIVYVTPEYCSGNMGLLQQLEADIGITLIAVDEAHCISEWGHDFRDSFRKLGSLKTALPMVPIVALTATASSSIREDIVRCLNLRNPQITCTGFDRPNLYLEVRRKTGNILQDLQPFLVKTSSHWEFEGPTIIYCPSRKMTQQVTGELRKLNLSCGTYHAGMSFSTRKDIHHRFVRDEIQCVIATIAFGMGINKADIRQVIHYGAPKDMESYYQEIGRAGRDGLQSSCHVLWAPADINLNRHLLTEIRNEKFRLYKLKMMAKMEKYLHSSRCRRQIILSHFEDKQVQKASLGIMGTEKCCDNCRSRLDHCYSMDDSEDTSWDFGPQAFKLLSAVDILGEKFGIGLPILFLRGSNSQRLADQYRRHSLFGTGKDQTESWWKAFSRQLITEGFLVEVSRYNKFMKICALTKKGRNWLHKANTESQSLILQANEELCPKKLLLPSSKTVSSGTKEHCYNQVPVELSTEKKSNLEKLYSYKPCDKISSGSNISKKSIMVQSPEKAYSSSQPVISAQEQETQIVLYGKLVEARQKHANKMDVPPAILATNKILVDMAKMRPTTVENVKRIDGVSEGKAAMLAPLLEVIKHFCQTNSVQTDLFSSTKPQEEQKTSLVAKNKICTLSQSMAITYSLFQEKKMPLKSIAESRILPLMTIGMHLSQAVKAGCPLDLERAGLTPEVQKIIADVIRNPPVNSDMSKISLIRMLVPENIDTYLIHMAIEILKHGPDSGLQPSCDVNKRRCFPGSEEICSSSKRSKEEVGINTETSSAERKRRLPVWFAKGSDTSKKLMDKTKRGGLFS

In the case of `CCc1c(N2CCN(C(=O)c3ncnc(C)c3O)CC2)c(=O)c2nn(C3=CCOCC3)nc2n1CC(=O)Nc1ncc(C(F)(F)F)cc1Cl` [Example 13], the half-inhibitory concentration (IC50) (commonly the concentration at which inhibition is half-maximal) in test [1] was 104 nM; in test [2] it was 435 nM; in test [3] it was > 25000 nM.
Take `CCc1c(N2CCN(C(=O)c3ncnc(C)c3O)CC2)c(=O)c2nn(C3=CCOCC3)nc2n1CC(=O)Nc1ccc(C(F)(F)F)cc1C` [Example 8]: the results for the IC50 in test [1], in test [4] and in test [3] were 118 nM, 133 nM and > 25000 nM, respectively.
The corresponding values for `CCc1c(N2CCN(C(=O)c3ncnc(C)c3O)CC2)c(=O)c2nn(C3=CCOCC3)nc2n1CC(=O)Nc1ccc2c(c1)CCC2` [Example 17] are 34.7 nM, 126 nM and > 25000 nM.
`CCc1c(N2CCN(C(=O)c3ncncc3O)CC2)c(=O)c2nn(C3=CCOCC3)nc2n1CC(=O)Nc1ccc(C(F)(F)F)cc1Cl` [Example 18]: the IC50 is 64.3 nM in test [1], 51.1 nM in test [4] and > 25000 nM in test [3].
The corresponding values for `CCc1c(N2CCN(C(=O)c3ncccc3O)CC2)c(=O)c2nn(C3=CCOCC3)nc2n1CC(=O)Nc1ccc(C(F)(F)F)cc1Cl` [Example 20] are 35.5 nM, 33.8 nM and 23700 nM.
Regarding `CCc1c(N2CCN(C(=O)c3ncnc(C)c3O)CC2)c(=O)c2nn(C3=CCOCC3)nc2n1CC(=O)Nc1cc(F)c(C(F)(F)F)cc1F` [Example 23], the IC50 in test [1] is 41.9 nM; in test [4] it was 102 nM; in test [3] it was > 25000 nM.
`CCc1c(N2CCN(C(=O)c3ncnc(C)c3O)CC2)c(=O)c2nn(C3=CCOCC3)nc2n1CC(=O)Nc1ccc(C(F)(F)F)cc1F` [Example 9]: the half-maximal inhibitory concentration (IC50) in test [1] (setting [6]) came to 94.9 nM.
The same measure, in the same setting: the same measure for `CCc1c(N2CCN(C(=O)c3ncnc(C)c3O)CC2)c(=O)c2nn(C3=CCOCC3)nc2n1CC(=O)Nc1ccc(S(F)(F)(F)(F)F)cc1` [Example 21]: 24.4 nM.
Turning to `CCc1c(N2CCN(C(=O)c3ncccc3O)CC2)c(=O)c2nn(C3=CCOCC3)nc2n1CC(=O)Nc1cc(F)c(C(F)(F)F)cc1Cl` [Example 19], the 50% inhibitory concentration (IC50) in test [1] amounted to 44.3 nM; in test [4], 60.9 nM; in test [3], 20700 nM.
Consider `CCc1c(N2CCN(C(=O)c3ncnc(C)c3O)CC2)c(=O)c2nn(C3=CCN(S(=O)(=O)C4CC4)CC3)cc2n1CC(=O)Nc1ccc(C(F)(F)F)cc1Cl` [Example 11], for which the IC50 in test [1] (setting [6]) was found to be 65.3 nM.
Consider `CCc1c(C2=CCN(C(=O)c3ncnc(C)c3O)CC2)c(=O)c2cn(C3=CCOCC3)nc2n1CC(=O)Nc1ccc(C(F)(F)F)cc1Cl` [Example 10], for which the 50% inhibitory concentration (IC50) in test [1] is 238 nM; in test [2], 552 nM; in test [4] it was 331 nM; in test [5] it was 871 nM; in test [3], > 25000 nM.
Regarding `CCc1c(N2CCN(C(=O)c3ncnc(C)c3O)CC2)c(=O)c2nn(C3=CCOCC3)cc2n1CC(=O)Nc1ccc(C(F)(F)F)cc1Cl` [Example 5], the concentration for half-maximal inhibition (IC50) in test [2] is 1580 nM; in test [4] it was 943 nM; in test [5] it was 2710 nM; in test [3] it was > 25000 nM.
As for `CCc1c(N2CCN(C(=O)c3ncccc3O)CC2)c(=O)c2nn(C3=CCOCC3)cc2n1CC(=O)Nc1ccc(C(F)(F)F)cc1Cl` [Example 6], the IC50 in test [1] was 134 nM; in test [4], 324 nM; in test [3], > 25000 nM.
On to `CCc1c(N2CCN(C(=O)c3ncnc(C)c3O)CC2)c(=O)c2nn(C3=CCOCC3)cc2n1CC(=O)Nc1ccc(S(F)(F)(F)(F)F)cc1` [Example 12], for which the IC50 is 86 nM in test [1], 317 nM in test [4] and > 25000 nM in test [3].
Take `CCc1c(N2CCN(C(=O)c3ncnc(C)c3O)CC2)c(=O)c2nn(C3=CCOCC3)nc2n1CC(=O)Nc1cc(Cl)c(C(F)(F)F)cc1C` [Example 14]: the IC50 in test [1] is 30.8 nM; in test [4] it was 42.4 nM; in test [3], > 25000 nM.
For `CCc1c(N2CCN(C(=O)c3ncnc(C)c3O)CC2)c(=O)c2nn(C3=CCOCC3)nc2n1CC(=O)Nc1ccc2c(c1)CC2` [Example 16], the IC50 was 42.6 nM in test [1], 148 nM in test [4] and > 25000 nM in test [3].
